Measurements from patent EP4741439A1, “BLOCK COPOLYMER CONTAINING REPEATING UNIT OF POLY([R, S]BETA-HYDROXYBUTYRATE), NANOPARTICLES FORMED FROM SAID COPOLYMER, AND PRODUCTION AND USE OF THOSE” (University of Tsukuba, priority 2023, dated 2025).

Legend:
[1] = tested on: cisplatin-induced acute kidney injury (AKI); assay: Protective effect on acute kidney injury by subcutaneous injection; type: in vivo, C57BL/6J male mice; conditions: subcutaneous injection about 250 mg in terms of BHB/kg, 6 hours prior to cisplatin 20 mg/kg; 72 hours after challenge
Method: C57BL/6J male mice (8 weeks old) were divided into four groups for use in different treatments. Acute kidney injury was induced by intraperitoneal injection of cisplatin (20 mg/kg). A mouse was pretreated with subcutaneous injection of physiological saline (n = 11) or sodium β-hydroxybutyrate (at a dose in terms of BHB/kg of about 250 mg, n = 1) or Nano^BHB (at a dose in terms of BHB/kg of about 250 mg, n = 10) 6 hours prior to exposure to cisplatin. The healthy group (n = 8) was injected with physiological saline instead of cisplatin. 72 hours after the cisplatin challenge, the mouse was sacrificed, and blood plasma and kidney were collected. Renal function was assessed by measuring the levels of blood urea nitrogen (BUN), creatinine (CRE), aspartate transaminase (AST). […] In the figure, (A) represents a scheme of animal experiment, (B) is a graphical representation of data on blood urea nitrogen in plasma of an AKI mouse 3 days after injection of cisplatin, (C) is a graphical representation of data on creatinine, (D) is a graphical representation of data on aspartate transaminase, (E) is a presentation image of periodic acid Schiff (PAS) staining at 20 fold magnification of kidney tissue, and (F) is a graph summarizing data of the result of quantitative measurement of a damaged region of the kidney from a stained image. […]

[2] = tested on: Bovine aortic endothelial cells (BAEC); assay: Cytotoxicity, WST cell viability; type: cell-based; conditions: 24 hours, BHB content from 0 to 25.4 mM
Method: Bovine aortic endothelial cells (BAEC) (available from RIKEN (RIKEN, Tsukuba, Japan)) were pre-seeded on a 96 well (well) plate and incubated with either Nano^BHB or BHB at different concentrations with a BHB content of from 0 to 25.4 mM in a medium. After 24 hours, the medium was discarded, followed by addition of 100 µL of medium containing 10 µL of WST agent and incubation for 4 hours. In a final process, cell viability was measured based on a ratio of optical signals of a subject well and a water treatment group well at a wavelength of 450 nm in each well.

SMILES: CC(O)CC(=O)[O-].[Na+] (stereo not drawn) [sodium β-hydroxybutyrate]
- Effect against cisplatin-induced acute kidney injury (BUN, CRE, AST, PAS staining) [1]: no decrease in renal function is observed
- survival rate and morphology of the BAEC cells [2]: do not affect
